Assay results published in ChEMBL document CHEMBL4184139, “Adamantyl- and other polycyclic cage-based conjugates of desferrioxamine B (DFOB) for treating iron-mediated toxicity in cell models of Parkinson's disease” (Bioorg Med Chem Lett, 2017).
Activity calls are given as the source filed them. The calls are words filed in the database; no cut-off is given here.

Experiments:
SK-N-BE(2)-M17 [1] = experiment: Cytotoxicity against human SK-N-BE(2)-M17 cells at 100 uM 24 hrs by MTT assay; assay type: cell-based; settings: sk-n-be(2)-m17, 24 h
SK-N-BE(2)-M17 [2] = experiment: Cytoprotection against PQ-induced cell death in human SK-N-BE(2)-M17 cells assessed as increase in cell viability at 100 uM pretreated for 2 hrs followed by 1 mM PQ addition measured after 24 hrs by MTT assay; assay type: functional, cell-based
[3] = Octanol-water partition coefficient, log P of the compound at 1 mg by RP-HPLC analysis; assay type: physicochemical
SK-N-BE(2)-M17 [4] = experiment: Cytoprotection against PQ-induced cell death in human SK-N-BE(2)-M17 cells assessed as increase in cell viability at 100 uM treated 2 hrs post 2 mM PQ treatment measured after 24 hrs by MTT assay; assay type: functional, cell-based
[5] = Binding affinity to Fe3+ in ferric ammonium citrate loaded C57BL6/J mouse brain primary astrocytes assessed as iron depletion at 100 uM treated 2 hrs post 125 uM FAC loading measured after 2 hrs by ICP-MS analysis; assay type: cell-based
[6] = Binding affinity to Fe3+ assessed as change in retention time for compound-Fe3+ complex by RP-HPLC analysis relative to free ligand
SK-N-BE(2)-M17 [7] = experiment: Cytoprotection against H2O2-induced cell death in human SK-N-BE(2)-M17 cells assessed as increase in cell viability at 100 uM pretreated for 2 hrs followed by 1 mM H2O2 addition measured after 24 hrs by MTT assay; assay type: functional, cell-based
SK-N-BE(2)-M17 [8] = experiment: Cytoprotection against PQ-induced cell death in human SK-N-BE(2)-M17 cells assessed as increase in cell viability at 100 uM treated 2 hrs post 2 mM PQ treatment measured after 24 hrs by LDH assay; assay type: functional, cell-based
SK-N-BE(2)-M17 [9] = experiment: Cytotoxicity against human SK-N-BE(2)-M17 cells at 100 uM 24 hrs by LDH release assay; assay type: cell-based; settings: sk-n-be(2)-m17, 24 h
SK-N-BE(2)-M17 [10] = experiment: Cytoprotection against H2O2-induced cell death in human SK-N-BE(2)-M17 cells assessed as increase in cell viability at 100 uM pretreated for 2 hrs followed by 1 mM H2O2 addition measured after 24 hrs by LDH assay; assay type: functional, cell-based
[11] = Binding affinity to Fe3+ assessed as [M+H]+ adduct formation by LC-MS/MS analysis
[12] = Binding affinity to Fe3+ assessed as [M+2H]+ adduct formation by LC-MS/MS analysis
SK-N-BE(2)-M17 [13] = experiment: Cytoprotection against PQ-induced cell death in human SK-N-BE(2)-M17 cells assessed as increase in cell viability at 100 uM pretreated for 2 hrs followed by 1 mM PQ addition measured after 24 hrs by LDH assay; assay type: functional, cell-based
SK-N-BE(2)-M17 [14] = experiment: Cytoprotection against H2O2-induced cell death in human SK-N-BE(2)-M17 cells assessed as increase in cell viability at 100 uM treated 2 hrs post 0.8 mM H2O2 treatment measured after 24 hrs by MTT assay; assay type: functional, cell-based
SK-N-BE(2)-M17 [15] = experiment: Cytoprotection against H2O2-induced cell death in human SK-N-BE(2)-M17 cells assessed as increase in cell viability at 100 uM treated 2 hrs post 0.8 mM H2O2 treatment measured after 24 hrs by LDH assay; assay type: functional, cell-based
Astrocyte [16] = experiment: Cytoprotection against H2O2-induced cell death in BSO pretreated C57BL6/J mouse brain primary astrocytes assessed as increase in cell viability at 10 uM pretreated for 2 hrs followed by H2O2 addition measured after 24 hrs by MTT assay; assay type: functional, cell-based
SK-N-BE(2)-M17 [17] = experiment: Cytoprotection against PQ-induced cell death in human SK-N-BE(2)-M17 cells assessed as increase in cell viability at 100 uM treated post 200 uM Fecl3 and 1 mM PQ treatment measured after 24 hrs by LDH assay; assay type: functional, cell-based
SK-N-BE(2)-M17 [18] = experiment: Cytoprotection against PQ-induced cell death in human SK-N-BE(2)-M17 cells assessed as increase in cell viability treated 2 hrs post 2 mM PQ treatment measured after 24 hrs by MTT assay; assay type: functional, cell-based
SK-N-BE(2)-M17 [19] = experiment: Cytoprotection against PQ-induced cell death in human SK-N-BE(2)-M17 cells assessed as increase in cell viability at 100 uM treated post 200 uM Fecl3 and 1 mM PQ treatment measured after 24 hrs by MTT assay; assay type: functional, cell-based
Astrocyte [20] = experiment: Cytoprotection against H2O2-induced cell death in BSO pretreated C57BL6/J mouse brain primary astrocytes assessed as increase in cell viability at 10 uM pretreated for 2 hrs followed by H2O2 addition measured after 24 hrs by LDH release assay; assay type: functional, cell-based
SK-N-BE(2)-M17 [21] = experiment: Cytoprotection against H2O2-induced cell death in human SK-N-BE(2)-M17 cells assessed as increase in cell viability at 1 mM pretreated for 2 hrs followed by 1 mM H2O2 addition measured after 24 hrs by MTT assay; assay type: functional, cell-based
SK-N-BE(2)-M17 [22] = experiment: Cytoprotection against H2O2-induced cell death in human SK-N-BE(2)-M17 cells assessed as increase in cell viability at 1 mM pretreated for 2 hrs followed by 1 mM H2O2 addition measured after 24 hrs by LDH assay; assay type: functional, cell-based
SK-N-BE(2)-M17 [23] = experiment: Cytoprotection against PQ-induced cell death in human SK-N-BE(2)-M17 cells assessed as increase in cell viability at 1 mM pretreated for 2 hrs followed by 1 mM PQ addition measured after 24 hrs by MTT assay; assay type: functional, cell-based
SK-N-BE(2)-M17 [24] = experiment: Cytoprotection against PQ-induced cell death in human SK-N-BE(2)-M17 cells assessed as increase in cell viability at 1 mM pretreated for 2 hrs followed by 1 mM PQ addition measured after 24 hrs by LDH assay; assay type: functional, cell-based
[25] = Binding affinity to Fe2+
SK-N-BE(2)-M17 [26] = experiment: Cytoprotection against PQ-induced cell death in human SK-N-BE(2)-M17 cells assessed as increase in cell viability up to 1 mM treated 2 hrs post 2 mM PQ treatment by MTT assay; assay type: functional, cell-based
[27] = Binding affinity to Fe3+

Row | Structure (SMILES) | logP [3] | Activity [5] | Retention time [6] | Activity [11] | Activity [12] | Activity (SK-N-BE(2)-M17 [1]) | Activity (SK-N-BE(2)-M17 [2]) | Activity (SK-N-BE(2)-M17 [4]) | Activity (SK-N-BE(2)-M17 [7]) | Activity (SK-N-BE(2)-M17 [8]) | Activity (SK-N-BE(2)-M17 [9]) | Activity (SK-N-BE(2)-M17 [10]) | Activity (SK-N-BE(2)-M17 [13]) | Activity (SK-N-BE(2)-M17 [14]) | Activity (SK-N-BE(2)-M17 [15]) | Activity (Astrocyte [16]) | Activity (SK-N-BE(2)-M17 [17]) | EC50 (SK-N-BE(2)-M17 [18]) | Activity (SK-N-BE(2)-M17 [19]) | Activity (Astrocyte [20]) | other results
1 | CC(=O)N(O)CCCCCNC(=O)CCC(=O)N(O)CCCCCNC(=O)CCC(=O)N(O)CCCCCNC(=O)C1CCCCC1 | 0.96 | Active | -0.04 min | Active | Active | Non-Toxic | inactive | inactive | inactive | inactive | Non-Toxic | inactive | inactive | inactive | inactive |  |  |  |  |  | 
2 | CCCCC[C@]12CC[C@@H](CC1)[C@@H](C(=O)NCCCCCN(O)C(=O)CCC(=O)NCCCCCN(O)C(=O)CCC(=O)NCCCCCN(O)C(C)=O)C2 (relative stereo) | 2.82 | Active | 3.67 min | Active | Active | Non-Toxic | Active | Active | Active | Active | Non-Toxic | Active | Active | Active | Active | Active |  | 10 µM |  | Active | 

Continued, in another order:

Row | logP [3] | Activity [5] | Retention time [6] | Activity [11] | Activity [12] | Structure (SMILES) | Activity (SK-N-BE(2)-M17 [1]) | Activity (SK-N-BE(2)-M17 [2]) | Activity (SK-N-BE(2)-M17 [4]) | Activity (SK-N-BE(2)-M17 [7]) | Activity (SK-N-BE(2)-M17 [8]) | Activity (SK-N-BE(2)-M17 [9]) | Activity (SK-N-BE(2)-M17 [10]) | Activity (SK-N-BE(2)-M17 [13]) | Activity (SK-N-BE(2)-M17 [14]) | Activity (SK-N-BE(2)-M17 [15]) | Activity (Astrocyte [16]) | Activity (SK-N-BE(2)-M17 [17]) | EC50 (SK-N-BE(2)-M17 [18]) | Activity (SK-N-BE(2)-M17 [19]) | Activity (Astrocyte [20]) | other results
3 | 2.07 |  | 1.06 min | Active | Active | CC(=O)N(O)CCCCCNC(=O)CCC(=O)N(O)CCCCCNC(=O)CCC(=O)N(O)CCCCCNC(=O)C12CC3CC(C)(CC(C)(C3)C1)C2 | Non-Toxic | Active | Active | Active |  | Non-Toxic | Active | Active | Active |  | Active | Active | 9.8 µM | Active | Active | 
4 | 2.17 | Active | 1.54 min | Active | Active | CC(=O)N(O)CCCCCNC(=O)CCC(=O)N(O)CCCCCNC(=O)CCC(=O)N(O)CCCCCNC(=O)CC12CC3CC(C)(CC(C)(C3)C1)C2 | Non-Toxic | Active | Active | Active |  | Non-Toxic | Active | Active |  |  | Active | Active | 5.8 µM | Active | Active | 
5 | -2.29 | inactive | -0.52 min |  |  | CC(=O)N(O)CCCCCNC(=O)CCC(=O)N(O)CCCCCNC(=O)CCC(=O)N(O)CCCCCN [DEFEROXAMINE] |  |  |  |  |  |  |  |  |  |  |  |  |  |  |  | Activity (SK-N-BE(2)-M17 [21]): Active; Activity (SK-N-BE(2)-M17 [22]): Active; Activity (SK-N-BE(2)-M17 [23]): Active; Activity (SK-N-BE(2)-M17 [24]): Active; log K [25]: 8; Activity (SK-N-BE(2)-M17 [26]): inactive; log K [27]: 30
